Assay results reported in patent US11701353B2, “Methods, compositions, and uses of novel FYN kinase inhibitors” (Pathways Neuro Pharma, Inc., priority 2015, dated 2023).

How the values were obtained:
[1] = target: full-length recombinant human FYN A (Homo sapiens (Human), UniProt P06241); test: ADP-Glo Kinase Assay, FYN kinase inhibition (primary and secondary screen); type: biochemical
Description: The chemical library was comprised of the SoftFocus ATP-competitive hinge binding compounds described by Harris, C. J., Hill, R. D., Sheppard, D. W., et al., The Design and Application of Target-Focused Compound Libraries. Combinatorial Chemistry and High Throughput Screening 14:521-31 (2011). The specific pharmacore chemistries included SFK52 comprising 6-[R2]-3-[R1]imidazo[1,2-b] pyridazine compounds, SFK33 comprising N-(3-[R2] imidazo [1,2-b] pyridazin-6-yl) [R1] amine compounds, SFK49 comprising N-(5-[R2] imidazo [2,1-b][1,3,4] thiadiazol-2-yl)[R1]-amine compounds, SFK 40 comprising 5-[R2]-3-[R1] pyridin-2-amine compounds, SFK43 comprising 6-[R2]-3-[R1]imidazo[1,2-a] pyrazine compounds, and SFK63. The chemical structures of the initial 600 potential kinase inhibitors are presented in Table 3, with those chosen for additional analysis presented in Table 4. Comparison of the compounds presented in Table 1 and those of Tables 2, 3 and 4, illustrate the novelty of the chemical structures claimed herein.
FYN kinase (10 micrograms) was from the FYN A Kinase Enzyme System (V3571, Promega UK Ltd.), a full-length recombinant human FYN A containing an N-terminal GST tag of about 85 kDa, expressed by bacullovirus in […] insect cells, supplied at a concentration of 0.1 microgram/microliter in 5× reaction buffer. The FYN substrate, a 12 amino acid peptide of the sequence […], containing a single tyrosine phosphorylation site, was custom synthesized (Peptide Synthetics, Peptide Protein Research, Fareham, UK) and supplied as a 4 mg/ml aqueous solution. All other reagents were obtained from Sigma (Sigma-Aldrich, Gillingham, Dorset, UK), with the exception of UltraPure ATP (V9102, Promega UK Ltd.) and the ATP-competitive broad spectrum protein kinase inhibitor staurosporine (569397, Merck Millipore, Watford, Hertfordshire, UK), or as otherwise indicated.
The assay procedure determines the IC50 of each potential FYN kinase inhibitor by measuring the enzyme catalyzed ATP-dependent phosphorylation of the FYN substrate peptide. The ADP-Glo™ Kinase Assay is specifically designed to quantify kinase activity by measuring the ADP produced in the reaction The reaction buffer comprises 40 mM Tris·HCl (pH 7.5), 20 mM MgCl2, 0.1 mg/ml BSA and 5 microM DTT. Individual compounds within the chemical library were dissolved in DMSO at known concentrations. Briefly, 2.5 microliters of reaction buffer containing 3 picograms of FYN kinase and serial dilutions of each potential FYN kinase inhibitor (9 3-fold dilutions of a 10 micromolar top sample) are placed into each well of a 384 well microtiter plate and incubated at room temperature for 30 minutes. An additional 2.5 microliters of reaction buffer containing 100 picograms of the FYN substrate and 12.5 picomoles of ATP are then added to each well and the reaction carried out for 90 minutes at room temperature. The reactions are terminated by addition of 5 microliters of the ADP-Glo™ Reagent component of the ADP-Glo™ Kinase Assay kit to each well. The ADP-Glo™ Reagent comprises an ATP-dependent adenylate cyclase, an inorganic pyrophosphatase and an excess of staurosporine. The adenylate cyclase converts the remaining ATP to cAMP and pyrophospahte, the pyrophosphatase converts the pyrophosphate to phosphate and the staurosporine inhibits the activity of the FYN kinase, the net effect is to remove all residual ATP while preserving the ADP produced by FYN kinase. The terminated reactions are incubated for 40 minutes at room temperature, prior to addition of the Kinase Detection Reagent component of the ADP-Glo™ Kinase Assay kit to each well. The Kinase Detection Reagent comprises pyruvate kinase, phosphoenol pyruvate (PEP), luciferin and luciferase. The pyruvate kinase converts PEP to pyruvate and in the process generates ATP from the residual ADP present in the terminated reaction. […]

Fyn = Fyn (Mus musculus (Mouse), UniProt P39688); conditions: cited from earlier work
Sequence of Fyn (P39688 whole entry): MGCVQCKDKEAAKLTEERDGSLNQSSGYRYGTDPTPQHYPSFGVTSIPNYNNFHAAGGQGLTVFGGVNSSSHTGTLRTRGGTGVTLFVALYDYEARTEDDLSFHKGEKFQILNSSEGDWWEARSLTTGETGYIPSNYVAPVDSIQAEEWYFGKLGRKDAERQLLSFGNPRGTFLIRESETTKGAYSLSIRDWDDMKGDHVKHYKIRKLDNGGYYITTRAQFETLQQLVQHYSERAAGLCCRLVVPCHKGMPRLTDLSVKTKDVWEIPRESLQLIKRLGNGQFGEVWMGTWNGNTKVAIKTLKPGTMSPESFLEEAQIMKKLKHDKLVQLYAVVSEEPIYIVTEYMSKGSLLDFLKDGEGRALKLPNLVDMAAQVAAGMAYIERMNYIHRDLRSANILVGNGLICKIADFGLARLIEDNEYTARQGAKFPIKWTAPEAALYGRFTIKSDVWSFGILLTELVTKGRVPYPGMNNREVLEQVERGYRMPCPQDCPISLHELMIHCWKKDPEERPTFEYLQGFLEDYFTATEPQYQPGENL

[2] = primary screen, initial compounds
[3] = secondary screen, candidate compounds re-synthesized and expanded

Sequence of full-length recombinant human FYN A (P06241 whole entry): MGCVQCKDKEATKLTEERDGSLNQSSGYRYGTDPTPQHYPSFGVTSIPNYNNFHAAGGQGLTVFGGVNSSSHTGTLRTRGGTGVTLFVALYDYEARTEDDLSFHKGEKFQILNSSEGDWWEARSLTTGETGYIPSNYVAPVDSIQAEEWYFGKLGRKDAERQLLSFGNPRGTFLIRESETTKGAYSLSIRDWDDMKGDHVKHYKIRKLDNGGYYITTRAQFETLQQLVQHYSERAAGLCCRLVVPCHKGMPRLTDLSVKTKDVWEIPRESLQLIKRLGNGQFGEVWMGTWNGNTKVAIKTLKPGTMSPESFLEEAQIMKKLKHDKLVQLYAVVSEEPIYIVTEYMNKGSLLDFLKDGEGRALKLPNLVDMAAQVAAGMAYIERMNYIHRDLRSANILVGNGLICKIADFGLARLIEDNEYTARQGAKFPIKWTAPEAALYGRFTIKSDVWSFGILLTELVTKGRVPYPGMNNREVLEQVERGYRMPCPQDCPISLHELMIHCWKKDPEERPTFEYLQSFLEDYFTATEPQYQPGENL

Row | Structure (SMILES) | IC50 [1, 2] [nM] | also measured
1 | CC(=O)Nc1cccc(-c2cncc(NCc3ccco3)n2)c1 [035_0144_0081, N-[3-[6-(2-furylmethyl-amino)pyrazin-2-yl]phenyl] acetamide] | 11200 | 
2 | Oc1cccc(-c2cncc(NCc3ccoc3)c2)c1 [081_0284_2069, 3-[5-(3-furylmethyl-amino)-3-pyridyl]phenol] | 10900 | 
3 | OCc1ccc(-c2cnc3ccc(NCc4ccco4)nn23)cc1 [229_0144_0285, [4-[6-(2-furylmethyl-amino)imidazo[1,2-b]pyridazin-3-yl]phenyl] methanol] | 2200 | 
4 | OCc1cccc(-c2cnc3ccc(NCc4ccco4)nn23)c1 [229_0144_0291, [3-[6-(2-furylmethyl-amino)imidazo[1,2-b]pyridazin-3-yl]phenyl] methanol] | 3860 | 
5 | CC(=O)c1cccc(-c2cnc3ccc(NCc4ccco4)nn23)c1 [229_0144_4145, 1-[3-[6-(2-furylmethyl-amino)imidazo[1,2-b]pyridazin-3-yl]phenyl] ethanone] | 997 | 
6 | NC(=O)c1cccc(-c2cnc3sc(NCC4CC4)nn23)c1 [699_4051_0347, 3-[2-(cyclopropyl-methyl-amino)imidazo [2,1-b][1,3,4]thia-diazol-5-yl]benzamide] | 1940 | 
7 | Cc1ccccc1CNc1nn2c(-c3cccc(C(=O)N(C)C)c3)cnc2s1 [699_8074_0349, N,N-dimethyl-3-[2-(o-tolylmethyl-amino)imidazo[2,1-b][1,3,4]thia-diazol-5-yl]benzamide] | 3730 | 
8 | COc1cc(-c2cnc3ccc(NCc4cccs4)nn23)ccc1O [BF000145954, 2-methoxy-4-[6-(2-thienylmeth-ylamino)imi-dazo[1,2-b]pyridazin-3-yl]phenol] |  | IC50 [1, 3]: 166 nM
9 | CN(C)C(=O)c1cccc(-c2cnc3sc(NCC4CC4)nn23)c1 [BF000714798, 3-[2-(cyclopropyl-methylamino)imidazo[2,1-b][1,3,4]thia-diazol-5-yl]-N,N-dimethyl-benzamide] |  | IC50 [1, 3]: 884 nM
10 | CN(C)C(=O)c1cccc(-c2cnc3sc(NCc4ccc5c(c4)OCO5)nn23)c1 [BF000717214, 3-[2-(1,3-benzodioxol-5-ylmethyl-amino)imi-dazo[2,1-b][1,3,4]thia-diazol-5-yl]-N,N-dimethyl-benzamide] |  | IC50 [1, 3]: 1930 nM
11 | COc1cc(-c2cnc3ccc(NCc4ccccn4)nn23)ccc1O [BF000817095, 2-methoxy-4-[6-(2-pyridylmeth-ylamino)imi-dazo[1,2-b]pyridazin-3-yl]phenol] |  | IC50 [1, 3]: 233 nM
12 | CN(C)S(=O)(=O)c1ccc2c(c1)/C(=C/c1cc3c([nH]1)CCCC3)C(=O)N2 [SU6656] |  | energy utilization (Fyn; Fyn knockout strains): no increase; lipid utilization (Fyn; Fyn knockout strains): no increase; fat mass (Fyn; treated mice relative to untreated control mice): significantly reduced

Continued, in another order:

Row | IC50 [1, 2] [nM] | Structure (SMILES) | also measured
13 | 3590 | O=CNc1cc(-c2ccc(C(=O)N3CCOCC3)cc2)cn2c(-c3ccc(F)cc3)cnc12 [788_0339_0337, N-[3-(4-fluorophenyl)-6-[4-(morpholine-4-carbonyl)phenyl]imidazo[1,2-a]pyridin-8-yl]formamide] | 
14 | 974 | COc1ccc(-c2cnc3ccc(Cc4ccccc4)nn23)cc1OC [828_0079_6001, 6-benzyl-3-(3,4-dimethoxyphen-yl)imidazo[1,2-b]pyridazine] | 
15 | 1300 | NC(=O)c1ccc(-c2cnc3ccc(Cc4ccc(F)cc4)nn23)cc1 [828_0346_6370, 4-[6-[(4-fluorophenyl)methyl]imidazo [1,2-b]pyridazin-3-yl]benzamide] | 
16 | 497 | c1csc(-c2cnc3ccc(-c4ccncc4)nn23)c1 [828_4147_0069, 6-(4-pyridyl)-3-(2-thienyl)imidazo [1,2-b]pyridazine] | 
